Assays:
[1] = target: T1, human ROCKα/ROCKII mix (Homo sapiens, UniProt O75116); test: Biochemical assay for ROCK (fluorescence polarization, ROCK IMAP Kit); conditions: Table 2, compounds of Formula XIII
T1 construct: purchased Upstate Biotechnology 14-451

[2] = target: T2, PKC epsilon (Homo sapiens, UniProt Q02156); test: Biochemical assay for PKC epsilon (fluorescence polarization, Protein Kinase C Assay Kit, Red); conditions: Table 2, compounds of Formula XIII; read-out: IC50 μM PKCε
T2 construct: purchased Invitrogen P2282
T2 sequence (Q02156 1-737): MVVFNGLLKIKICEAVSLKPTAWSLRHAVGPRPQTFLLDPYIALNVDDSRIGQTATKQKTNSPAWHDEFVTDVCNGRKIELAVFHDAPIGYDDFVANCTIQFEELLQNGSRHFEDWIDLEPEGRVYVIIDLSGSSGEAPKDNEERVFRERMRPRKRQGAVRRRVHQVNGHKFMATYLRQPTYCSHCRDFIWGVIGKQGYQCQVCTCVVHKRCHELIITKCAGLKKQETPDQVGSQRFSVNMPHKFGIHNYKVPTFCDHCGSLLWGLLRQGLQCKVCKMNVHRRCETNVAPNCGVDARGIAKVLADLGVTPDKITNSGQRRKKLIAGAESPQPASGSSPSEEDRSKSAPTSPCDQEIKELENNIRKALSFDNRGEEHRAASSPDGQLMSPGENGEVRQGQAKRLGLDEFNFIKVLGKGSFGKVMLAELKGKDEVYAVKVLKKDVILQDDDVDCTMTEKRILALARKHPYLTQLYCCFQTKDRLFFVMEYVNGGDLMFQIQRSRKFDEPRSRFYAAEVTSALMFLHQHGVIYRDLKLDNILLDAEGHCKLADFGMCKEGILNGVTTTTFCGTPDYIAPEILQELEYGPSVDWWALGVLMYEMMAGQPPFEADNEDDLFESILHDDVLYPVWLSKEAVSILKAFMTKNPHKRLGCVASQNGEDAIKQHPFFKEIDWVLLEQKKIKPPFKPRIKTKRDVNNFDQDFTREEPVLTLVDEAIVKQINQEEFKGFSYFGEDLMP
Outline: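 Read-out was fluorescence-polarization competition between phosphorylated substrate and a rhodamine PKC tracer for an anti-phosphoserine antibody, added with EDTA stop after an 80 min room-temperature kinase reaction with ATP and protein substrate (Mg2+/Ca2+ buffer). Enzyme (10 ng/ml final) was preincubated with compound for 30 min.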

T1 sequence (O75116 11-552 limits assumed): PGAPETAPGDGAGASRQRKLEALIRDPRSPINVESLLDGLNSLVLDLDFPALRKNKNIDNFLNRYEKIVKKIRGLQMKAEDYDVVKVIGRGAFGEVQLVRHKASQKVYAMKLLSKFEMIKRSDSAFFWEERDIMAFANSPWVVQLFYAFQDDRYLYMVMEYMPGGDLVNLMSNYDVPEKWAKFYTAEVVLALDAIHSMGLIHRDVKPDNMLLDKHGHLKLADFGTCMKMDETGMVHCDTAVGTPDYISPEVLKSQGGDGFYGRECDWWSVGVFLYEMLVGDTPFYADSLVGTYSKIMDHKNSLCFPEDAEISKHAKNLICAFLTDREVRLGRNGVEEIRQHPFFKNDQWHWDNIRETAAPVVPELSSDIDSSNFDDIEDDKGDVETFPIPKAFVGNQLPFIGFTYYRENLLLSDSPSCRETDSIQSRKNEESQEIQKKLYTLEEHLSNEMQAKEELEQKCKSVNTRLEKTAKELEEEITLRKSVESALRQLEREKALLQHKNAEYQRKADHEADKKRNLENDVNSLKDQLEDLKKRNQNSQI

| Structure (SMILES) | IC50 [1] | IC50 [2] |
| --- | --- | --- |
| NC(CNC(=O)CCC1CCCC1)c1ccc(C(=O)Nc2ccncc2)cc1 (centres unmarked) [Compound 51, 4-[1-Amino-2-(3-cyclopentyl-propionylamino)-ethyl]-N-pyridin-4-yl-benzamide] | 0.05 to 0.5 µM | 0.5 to 5 µM |
| NC(CNC(=O)CCC1CCCCC1)c1ccc(C(=O)Nc2ccncc2)cc1 (centres unmarked) [Compound 52, 4-[1-Amino-2-(3-cyclohexyl-propionylamino)-ethyl]-N-pyridin-4-yl-benzamide] | 0.05 to 0.5 µM | 0.5 to 5 µM |
| CN(C)CCCC(=O)NCC(N)c1ccc(C(=O)Nc2ccncc2)cc1 (centres unmarked) [Compound 53, 4-[1-Amino-2-(4-dimethylamino-butyrylamino)-ethyl]-N-pyridin-4-yl-benzamide] | 0.5 to 5 µM | 5 to 50 µM |
| N#CCC(=O)NCC(N)c1ccc(C(=O)Nc2ccncc2)cc1 (centres unmarked) [Compound 54, 4-[1-Amino-2-(2-cyano-acetylamino)-ethyl]-N-pyridin-4-yl-benzamide] | 0.05 to 0.5 µM | 0.5 to 5 µM |
| NC(CNC(=O)CNC(=O)c1ccccc1)c1ccc(C(=O)Nc2ccncc2)cc1 (centres unmarked) [Compound 55, 4-[1-Amino-2-(2-benzoylamino-acetylamino)-ethyl]-N-pyridin-4-yl-benzamide] | 0.05 to 0.5 µM | 5 to 50 µM |
| NC(CNC(=O)CNC(=O)c1ccco1)c1ccc(C(=O)Nc2ccncc2)cc1 (centres unmarked) [Compound 56, Furan-2-carboxylic acid ({2-amino-2-[4-(pyridin-4-ylcarbamoyl)-phenyl]-ethylcarbamoyl}-methyl)-amide] | 0.05 to 0.5 µM | 5 to 50 µM |
| COCC(=O)NCC(N)c1ccc(C(=O)Nc2ccncc2)cc1 (centres unmarked) [Compound 57, 4-[1-Amino-2-(2-methoxy-acetylamino)-ethyl]-N-pyridin-4-yl-benzamide] | 0.5 to 5 µM | 5 to 50 µM |
| COCCC(=O)NCC(N)c1ccc(C(=O)Nc2ccncc2)cc1 (centres unmarked) [Compound 58, 4-[1-Amino-2-(3-methoxy-propionylamino)-ethyl]-N-pyridin-4-yl-benzamide] | 0.5 to 5 µM | 5 to 50 µM |
| CC(C)=NOC(C)C(=O)NCC(N)c1ccc(C(=O)Nc2ccncc2)cc1 (centres unmarked) [Compound 59, 4-[1-Amino-2-(2-isopropylideneaminooxy-propionylamino)-ethyl]-N-pyridin-4-yl-benzamide] | 0.5 to 5 µM | 0.5 to 5 µM |
| CC(=NOCC(=O)NCC(N)c1ccc(C(=O)Nc2ccncc2)cc1)c1ccccc1 (centres unmarked) [Compound 60, 4-{1-Amino-2-[2-(1-phenyl-ethylideneaminooxy)-acetylamino]-ethyl}-N-pyridin-4-yl-benzamide] | 0.05 to 0.5 µM | 0.5 to 5 µM |
| Cc1ccsc1C=NOCC(=O)NCC(N)c1ccc(C(=O)Nc2ccncc2)cc1 (centres unmarked) [Compound 61, 4-{1-Amino-2-[2-(3-methyl-thiophen-2-ylmethyleneaminooxy)-acetylamino]-ethyl}-N-pyridin-4-yl-benzamide] | 0.5 to 5 µM | 5 to 50 µM |
| CCOCC(=O)NCC(N)c1ccc(C(=O)Nc2ccncc2)cc1 (centres unmarked) [Compound 62, 4-[1-amino-2-(2-ethoxy-acetylamino)-ethyl]-N-pyridin-4-yl-benzamide] | 0.5 to 5 µM | 5 to 50 µM |
| CCSCC(=O)NCC(N)c1ccc(C(=O)Nc2ccncc2)cc1 (centres unmarked) [Compound 63, 4-[1-amino-2-(2-ethylsulfanyl-acetylamino)-ethyl]-N-pyridin-4-yl-benzamide] | 0.05 to 0.5 µM | 0.5 to 5 µM |
| NC(CNC(=O)CSc1ncccn1)c1ccc(C(=O)Nc2ccncc2)cc1 (centres unmarked) [Compound 64, 4-{1-amino-2-[2-(pyrimidin-2-ylsulfanyl)-acetylamino]-ethyl}-N-pyridin-4-yl-benzamide] | 0.5 to 5 µM | 5 to 50 µM |
| NC(CNC(=O)C1CCOC1)c1ccc(C(=O)Nc2ccncc2)cc1 (centres unmarked) [Compound 65, Tetrahydro-furan-3-carboxylic acid {2-amino-2-[4-(pyridin-4-ylcarbamoyl)-phenyl]-ethyl}-amide] | 0.5 to 5 µM | 0.5 to 5 µM |
| NC(CNC(=O)C1CCCO1)c1ccc(C(=O)Nc2ccncc2)cc1 (centres unmarked) [Compound 66, Tetrahydro-furan-2-carboxylic acid {2-amino-2-[4-(pyridin-4-ylcarbamoyl)-phenyl]-ethyl}-amide] | 0.5 to 5 µM | 5 to 50 µM |
| NC(CNC(=O)[C@@H]1CCC(=O)N1)c1ccc(C(=O)Nc2ccncc2)cc1 (stereo partly drawn) [Compound 67, 5-Oxo-pyrrolidine-2-(S)-carboxylic acid {2-amino-2-[4-(pyridin-4-ylcarbamoyl)-phenyl]-ethyl}-amide] | 0.5 to 5 µM | 5 to 50 µM |

| Structure (SMILES) | IC50 [1] | IC50 [2] |
| --- | --- | --- |
| NC(CNC(=O)[C@H]1CCC(=O)N1)c1ccc(C(=O)Nc2ccncc2)cc1 (stereo partly drawn) [Compound 68, 5-Oxo-pyrrolidine-2-(R)-carboxylic acid {2-amino-2-[4-(pyridin-4-ylcarbamoyl)-phenyl]-ethyl}-amide] | 0.05 to 0.5 µM | 5 to 50 µM |
| NC(CNC(=O)c1ccc2ccccc2c1)c1ccc(C(=O)Nc2ccncc2)cc1 (centres unmarked) [Compound 70] | 0.05 to 0.5 µM | 5 to 50 µM |
| NC(CNC(=O)c1cccc2ccccc12)c1ccc(C(=O)Nc2ccncc2)cc1 (centres unmarked) [Compound 71] | 0.5 to 5 µM | 0.5 to 5 µM |
| COc1ccccc1C(=O)NCC(N)c1ccc(C(=O)Nc2ccncc2)cc1 (centres unmarked) [Compound 72, 4-[1-amino-2-(2-methoxy-benzoylamino)-ethyl]-N-pyridin-4-yl-benzamide] | 0.5 to 5 µM | 0.5 to 5 µM |
| COc1cccc(C(=O)NCC(N)c2ccc(C(=O)Nc3ccncc3)cc2)c1 (centres unmarked) [Compound 73, 4-[1-amino-2-(3-methoxy-benzoylamino)-ethyl]-N-pyridin-4-yl-benzamide] | 0.5 to 5 µM | 0.5 to 5 µM |
| COc1ccc(C(=O)NCC(N)c2ccc(C(=O)Nc3ccncc3)cc2)cc1 (centres unmarked) [Compound 74, 4-[1-amino-2-(4-methoxy-benzoylamino)-ethyl]-N-pyridin-4-yl-benzamide] | 0.5 to 5 µM | 5 to 50 µM |
| CCCOc1ccc(C(=O)NCC(N)c2ccc(C(=O)Nc3ccncc3)cc2)cc1 (centres unmarked) [Compound 75, 4-[1-amino-2-(4-propoxy-benzoylamino)-ethyl]-N-pyridin-4-yl-benzamide] | 0.5 to 5 µM | 5 to 50 µM |
| NC(CNC(=O)c1ccccc1Oc1ccccc1)c1ccc(C(=O)Nc2ccncc2)cc1 (centres unmarked) [Compound 76, 4-[1-amino-2-(2-phenoxy-benzoylamino)-ethyl]-N-pyridin-4-yl-benzamide] | 0.5 to 5 µM | 0.5 to 5 µM |
| NC(CNC(=O)c1cccc(Oc2ccccc2)c1)c1ccc(C(=O)Nc2ccncc2)cc1 (centres unmarked) [Compound 77, 4-[1-amino-2-(3-phenoxy-benzoylamino)-ethyl]-N-pyridin-4-yl-benzamide] | 0.5 to 5 µM | 5 to 50 µM |
| NC(CNC(=O)c1ccc(Oc2ccccc2)cc1)c1ccc(C(=O)Nc2ccncc2)cc1 (centres unmarked) [Compound 78, 4-[1-amino-2-(4-phenoxy-benzoylamino)-ethyl]-N-pyridin-4-yl-benzamide] | 0.5 to 5 µM | 5 to 50 µM |
| COc1cc(OC)cc(C(=O)NCC(N)c2ccc(C(=O)Nc3ccncc3)cc2)c1 (centres unmarked) [Compound 79, 4-[1-amino-2-(3,5-dimethoxy-benzoylamino)-ethyl]-N-pyridin-4-yl-benzamide] | 0.5 to 5 µM | 0.5 to 5 µM |
| NC(CNC(=O)c1ccc2c(c1)OCO2)c1ccc(C(=O)Nc2ccncc2)cc1 (centres unmarked) [Compound 80, Benzo[1,3]dioxole-5-carboxylic acid {2-amino-2-[4-(pyridin-4-ylcarbamoyl)-phenyl]-ethyl}amide] | 0.05 to 0.5 µM | 5 to 50 µM |
| CCN(CC)c1ccc(C(=O)NCC(N)c2ccc(C(=O)Nc3ccncc3)cc2)cc1 (centres unmarked) [Compound 81, 4-[1-amino-2-(4-diethylamino-benzoylamino)-ethyl]-N-pyridin-4-yl-benzamide] | 0.5 to 5 µM | 5 to 50 µM |
| NC(CNC(=O)c1ccccc1Nc1ccccc1)c1ccc(C(=O)Nc2ccncc2)cc1 (centres unmarked) [Compound 82, 4-[1-amino-2-(2-phenylamino-benzoylamino)-ethyl]-N-pyridin-4-yl-benzamide] | 0.5 to 5 µM | 0.5 to 5 µM |
| CC(=O)Nc1ccc(C(=O)NCC(N)c2ccc(C(=O)Nc3ccncc3)cc2)cc1 (centres unmarked) [Compound 83, 4-[1-amino-2-(4-acetylamino-benzoylamino)-ethyl]-N-pyridin-4-yl-benzamide] | 0.5 to 5 µM | 5 to 50 µM |
| Cc1ccccc1C(=O)NCC(N)c1ccc(C(=O)Nc2ccncc2)cc1 (centres unmarked) [Compound 84, 4-[1-amino-2-(2-methyl-benzoylamino)-ethyl]-N-pyridin-4-yl-benzamide] | 0.5 to 5 µM | 5 to 50 µM |
| Cc1cccc(C(=O)NCC(N)c2ccc(C(=O)Nc3ccncc3)cc2)c1 (centres unmarked) [Compound 85, 4-[1-amino-2-(3-methyl-benzoylamino)-ethyl]-N-pyridin-4-yl-benzamide] | 0.5 to 5 µM | 0.5 to 5 µM |

Reference: US20100168102A9, “Amide Derivatives as Kinase Inhibitors” (Devgen NV, priority 2005, published 2010)
